According to patent publication US9167820B2, “Anti-biofilm compounds” (priority 2011, dated 2015):

Key:
[1] = test system: P. gingivalis adherence to streptococci (S. gordonii DL-1); assay: Inhibition of P. gingivalis adherence to streptococci, two species biofilm culture model (confocal microscopy); format: cell-based; conditions: for P. gingivalis adherence to streptococci at 5 μM: 5 μM compound; for inhibition of P. gingivalis adherence, dose dependence: tested at final concentrations of 5, 20 or 60 μM, 24 hrs anaerobic incubation; for P. gingivalis adherence to streptococci at 20 μM: 20 μM compound
Protocol: Compounds 25, 27a, 34, 35 and 42 were tested to determine if they inhibited P. gingivalis adherence to streptococci using a two species biofilm culture model. Compounds of the invention (e.g. compounds of formula I) can also be tested using this method. A mid-exponential phase culture of S. gordonii DL-1 was harvested by centrifugation and the cells were suspended in phosphate buffered saline (PBS) at a density of 10^9 cfu/ml. A 1 ml aliquot was labeled with hexidium iodide (30 μM) for 15 minutes with gentle shaking. After washing three times with PBS, streptococci were suspended in growth medium and 100 μl was added to a 12 well microtiter plate (Grace Bio-Labs) and incubated anaerobically for 24 hrs.
P. gingivalis cells from an exponential culture were washed with PBS and labeled by reacting with 4 μg/ml carboxyfluorescein-succinyl ester for 30 minutes at 4° C. After washing three times with PBS, the cells were suspended in PBS at a density of 2×10^7 cfu/ml. The test compounds were dissolved in absolute ethanol to a final concentration of 30 mM and each was diluted into 100 μl P. gingivalis to final concentrations of 5, 20 or 60 μM and incubated for 30 minutes. After removal of unbound streptococci from the micotiter plate, P. gingivalis samples were then added to each well and incubated anaerobically for 24 hrs. A control well contained P. gingivalis that was pre-incubated with PBS alone.
Adherence of P. gingivalis to streptococci was analyzed using confocal laser scanning microscopy on an Olympus FluoView 500 inverted confocal microscope. Image stacks were acquired using Olympus FluoView software and rendered into 3 dimensional projections using Volocity Image Analysis software, where S. gordonii is depicted in red and P. gingivalis is shown in green/yellow. […] Compound 46 reduced P. gingivalis adherence to streptococci by 25% at 25 μM and by approximately 60% at 50 μM.

[2] = test system: P. gingivalis biofilms on streptococci; assay: Inhibition/disruption of P. gingivalis biofilms on streptococci by AgI/II-derived peptide; format: cell-based
Protocol: The plate assays above allow a quick examination of the kinetics of Mfa binding and inhibition of bacterial adherence. To determine if the Mfa-catalyzed compounds selected above inhibit the formation of P. gingivalis biofilms, or alternatively are capable of disrupting a pre-existing biofilm, dual species P. gingivalis-S. gordonii biofilms are grown and analyzed as previously described by Daep et al. (Daep, C. A., James, D. M., Lamont, R. J. and Demuth, D. R. 2006. Structural Characterization of Peptide-Mediated Inhibition of P. gingivalis Biofilm Formation. Infect. Immun. 74: 5756-5762; Daep, C. A., Lamont R. J. and Demuth, D. R. 2008. Interaction of P. gingivalis with oral streptococci requires a motif that resembles the eukaryotic nuclear receptor box protein-protein interaction domain. Infect. Immun. 76:3272-3280) using an open flow biofilm culture system. To determine if the inhibitors are capable of disrupting existing P. gingivalis-streptococcal biofilms, pre-formed biofilms are incubated with medium containing the inhibitor and analyzed as above. The inhibitors identified from the assays above are analyzed for in vivo efficacy in preventing P. gingivalis colonization in a mouse model of periodontitis.

P. gingivalis = assay: Modified Baker mouse model of periodontitis (S. gordonii then P. gingivalis infection), alveolar bone loss; format: in vivo, Balb/cByJ mice; conditions: mice infected with S. gordonii and 10^7 cfu P. gingivalis; peptide added to the inoculum
From the text: FIG. 6. Alveolar bone loss induced in Balb/cByJ mice in the presence and absence of BAR peptide. Sham infected animals were inoculated with CMC slurry without bacteria.
To determine how effectively the inhibitors limit or prevent P. gingivalis colonization in vivo, a modified Baker mouse model of periodontitis is used. The model is modified by first infecting with and establishing S. gordonii in the oral cavity of Balb/cByJ mice then subsequently challenging with P. gingivalis. In the presence of S. gordonii, a persistent infection of P. gingivalis (detected by 16S rDNA PCR 47 days post infection) can be established using an inoculum of 10^7 cfu. […] Thus, preventing P. gingivalis colonization of mice reduces alveolar bone loss.

Cc1nc(-c2ccccc2)c(-c2ccccc2)o1 [Compound 25, 2-Methyl-4,5-diphenyloxazole]
P. gingivalis adherence to streptococci at 5 μM [1]: completely inhibited

c1ccc(-c2nc(-c3ccccc3)c(-c3ccccc3)o2)cc1 [Compound 27a]
P. gingivalis adherence to streptococci at a concentration of 60 ([1]; concentration of 60 (unit not given)): completely blocked adherence
inhibition of P. gingivalis adherence, dose dependence [1]: dose dependent inhibition

[N-]=[N+]=Nc1ccc(-c2nc(-c3ccccc3)c(-c3ccccc3)o2)cc1 [Compound 34, 2-(4-azidophenyl)-4,5-diphenyloxazole]
P. gingivalis adherence to streptococci at 5 μM [1]: significantly reduced
P. gingivalis adherence to streptococci at 20 μM [1]: completely blocked adherence

[N-]=[N+]=Nc1cccc(-c2nc(-c3ccccc3)c(-c3ccccc3)o2)c1 [Compound 35, 2-(3-azidophenyl)-4,5-diphenyloxazole]
P. gingivalis adherence to streptococci at 20 μM [1]: significantly reduced adherence
P. gingivalis adherence to streptococci at 60 μM ([1]; 60 μM compound): completely blocked

[N-]=[N+]=NCc1nc(-c2ccccc2)c(-c2ccccc2)o1 [Compound 42, 2-(Azidomethyl)-4,5-diphenyloxazole]
P. gingivalis adherence to streptococci at 20 μM [1]: completely inhibited adherence
inhibition of P. gingivalis adherence, dose dependence [1]: dose dependent inhibition

CC(C)CNc1nc(NCC(C)C)nc(-c2ccccc2)n1 [Compound 46, N^2,N^4-Diisobutyl-6-phenyl-1,3,5-triazine-2,4-diamine]
reduction of P. gingivalis adherence to streptococci at 25 μM ([1]; 25 μM compound): 25%
reduction of P. gingivalis adherence to streptococci at 50 μM ([1]; 50 μM compound): approximately 60%

LEAAPKKVQDLLKKANITVKGAFQLFS [BAR peptide]
inhibition of P. gingivalis adherence and formation of biofilms on streptococcal substrates [2]: potently inhibits
disruption of existing P. gingivalis biofilms ([2]; pre-existing biofilms): capable of disrupting existing P. gingivalis biofilms
IC50 ([2]; read-out: I50, inhibition of development of P. gingivalis biofilms on streptococci): 1300 nM
alveolar bone loss (P. gingivalis): reduced to near sham infected levels
